Reference: patent publication US10499641B2 (priority 2010, dated 2019)

What was measured:
[1] = test system: Phytophthora infestans; type: in vivo; conditions: young tomato plants, sprayed, active ingredient concentration 100 ppm, inoculated 1 day after treatment, evaluation 7 days after inoculation; 100% = no infection
[2] = test system: Plasmopara viticola; assay: Plasmopara test (grapevine)/protective; type: in vivo; conditions: young grapevine plants, sprayed, active ingredient concentration 10 ppm, evaluation 6 days after inoculation; 100% = no infection
Method: Plasmopara Test (Grapevine)/Protective
• Solvent: 24.5 parts by weight of acetone • 24.5 parts by weight of dimethylacetamide • Emulsifier: 1 part by weight of alkylaryl polyglycol ether
[To produce an appropriate active ingredient formulation, 1 part by weight of active ingredient is mixed with the specified amounts of solvent and emulsifier, and the concentrate is diluted with water to the desired concentration.
To test for protective efficacy, young plants are sprayed with the active ingredient formulation at the stated application rate. After the spray coating has dried on, the plants are inoculated with an aqueous spore suspension of Plasmopara viticola and then remain in an incubation cabin at approx. 20° C. and 100% relative air humidity for 1 day. Subsequently, the plants are placed in a greenhouse at approx. 21° C. and approx. 90% air humidity for 4 days. The plants are then moistened and placed in an incubation cabin for 1 day.
Evaluation follows 6 days after the inoculation. 0% means an efficacy which corresponds to that of the control, whereas an efficacy of 100% means that no infection is observed.
In this test, the following inventive compounds show, at an active ingredient concentration of 10 ppm, an efficacy of 70% or more: […]

[3] = test system: Peronospora brassicae; assay: Peronospora test (oilseed rape seeds)/seed treatment; type: in vivo; conditions: dose 50 g/dt, 14-day-old plants inoculated, incubated 7 days, infected leaf area, 100% = no disease
Method: Peronospora Test (Oilseed Rape Seeds)/Seed Treatment
The test was conducted under greenhouse conditions.
Oilseed rape seeds treated with an inventive active compound or a combination of inventive active compounds dissolved in N-methyl-2-pyrrolidone and diluted with water to the desired dose were sown in 6*6 cm vessels. The vessels contain 4 cm of a 1:1 mixture of steam-treated field soil and sand. The plants grew at 10° C.
14-day-old plants were inoculated with an aqueous spore suspension of Peronospora brassicae. The vessels containing the plants were incubated in a greenhouse at a temperature of 15° C. and a relative air humidity of 100% for 7 days.
The assessment of the test included the evaluation of the infected leaf area per plant. 0% means an efficiency corresponding to that of the control, while an efficiency of 100% means that no disease is observed.

[4] = pH 7.8
[5] = physchem

Structure (SMILES) | Eff. % [1] [%] | Eff. % [2] [%] | Eff. % [3] [%] | logp [b] [4] | chromatographic logP ([5]; pH 2.7) | chromatographic logP ([5]; pH 7.8)
CON=Cc1cccc(F)c1C1CC(c2csc(C3CCN(C(=O)Cn4nc(C(F)F)cc4C(F)F)CC3)n2)=NO1 (stereo not shown) [Example I-60] | 84 | 100 | 95 |  |  | 
Cc1cc(C(F)(F)F)nn1CC(=O)N1CCC(c2nc(C3=NOC(c4ccccc4OS(=O)(=O)C4CC4)C3)cs2)CC1 (stereo not shown) [Example I-61] | 89 | 100 | 90 |  |  | 
CCS(=O)(=O)Oc1ccccc1C1CC(c2csc(C3CCN(C(=O)Cn4nc(C(F)F)cc4C(F)F)CC3)n2)=NO1 (stereo not shown) [Example I-65] | 100 | 100 | 90 |  |  | 
CC(C)(C)OC(=O)Nc1ccc(C2CC(c3csc(C4CCN(C(=O)Cn5nc(C(F)F)cc5C(F)F)CC4)n3)=NO2)cc1 (stereo not shown) [Example I-17, tert-Butyl (4-{3-[2-(1-{[3,5-bis(difluoromethyl)-1H-pyrazol-1-yl]acetyl}piperidin-4-yl)-1,3-thiazol-4-yl]-4,5-dihydro-1,2-oxazol-5-yl}phenyl)carbamate] | 100 |  |  | 3.46[b] |  | 
O=C(Cn1nc(C(F)F)cc1C(F)F)N1CCC(c2nc(C3=NOC(c4ccccc4OCC#Cc4cccc5ccccc45)C3)cs2)CC1 (stereo not shown) [Example I-2, 2-[3,5-Bis(difluoromethyl)-1H-pyrazol-1-yl]-1-(4-{4-[5-(2-{[3-(1-naphthyl)prop-2-yn-1-yl]oxy}phenyl)-4,5-dihydro-1,2-oxazol-3-yl]-1,3-thiazol-2-yl}piperidin-1-yl)ethanone] | 100 |  |  |  | 4.81 | 4.68
C[Si](C)(C)C#CCOc1ccccc1C1CC(c2csc(C3CCN(C(=O)Cn4nc(C(F)F)cc4C(F)F)CC3)n2)=NO1 (stereo not shown) [Example I-1, 2-[3,5-Bis(difluoromethyl)-1H-pyrazol-1-yl]-1-(4-{4-[5-(2-{[3-(trimethylsilyl)prop-2-yn-1-yl]oxy}phenyl)-4,5-dihydro-1,2-oxazol-3-yl]-1,3-thiazol-2-yl]piperidin-1-yl}ethanone] |  |  |  | 4.58[b] |  | 
O=C(Cn1nc(C(F)F)cc1C(F)F)N1CCC(c2nc(C3=NOC(c4ccccc4C=NO)C3)cs2)CC1 (mixture of isomers) [Example I-4] | 100 | 100 | 92 |  |  | 
Cc1cc(C(F)(F)F)nn1CC(=O)N1CCC(c2nc(C3=NOC(c4ccccc4C=NO)C3)cs2)CC1 (mixture of isomers) [Example I-38] | 100 | 95 | 86 |  |  | 
CC(=NO)c1ccccc1C1CC(c2csc(C3CCN(C(=O)Cn4nc(C(F)(F)F)cc4C)CC3)n2)=NO1 (stereo not shown) [Example I-40, 1-[4-(4-{5-[2-(N-Hydroxyethanimidoyl)phenyl]-4,5-dihydro-1,2-oxazol-3-yl}-1,3-thiazol-2-yl)piperidin-1-yl]-2-[5-methyl-3-(trifluoromethyl)-1H-pyrazol-1-yl]ethanone] | 100 | 90 |  |  | 2.92 | 
Cc1ccc(Cl)cc1NC(=O)N1CCC(c2nc(C3=NOC(c4cccc(C=NO)c4)C3)cs2)CC1 (mixture of isomers) [Example I-14] | 100 | 100 |  |  |  | 
N#CCOc1ccc(C2CC(c3csc(C4CCN(C(=O)Cn5nc(C(F)F)cc5C(F)F)CC4)n3)=NO2)cc1 (stereo not shown) [Example I-81] | 100 | 99 |  |  |  | 
Cc1cc(C(F)(F)F)nn1CC(=O)N1CCC(c2nc(C3=NOC(c4c(F)cccc4OCC#N)C3)cs2)CC1 (stereo not shown) [Example I-86] | 75 | 99 |  |  |  | 
Cc1cc(C(F)(F)F)nn1CC(=O)N1CCC(c2nc(C3=NOC(c4ccccc4OS(C)(=O)=O)C3)cs2)CC1 (stereo not shown) [Example I-62] | 89 | 100 | 90 |  |  | 
N#CCCn1cccc1C1CC(c2csc(C3CCN(C(=O)Cn4nc(C(F)F)cc4C(F)F)CC3)n2)=NO1 (stereo not shown) [Example I-87] | 80 | 95 |  |  |  | 
N#CCOc1cccc(F)c1C1CC(c2csc(C3CCN(C(=O)Cn4nc(C(F)F)cc4C(F)F)CC3)n2)=NO1 (stereo not shown) [Example I-113] | 85 | 100 |  |  |  | 
CCON=Cc1ccccc1C1CC(c2csc(C3CCN(C(=O)Cn4nc(C(F)(F)F)cc4C)CC3)n2)=NO1 (stereo not shown) [Example I-29] | 100 | 90 |  |  |  | 

Structure (SMILES) | Eff. % [1] [%] | Eff. % [2] [%] | Eff. % [3] [%] | logp [b] [4] | chromatographic logP ([5]; pH 2.7) | chromatographic logP ([5]; pH 7.8)
O=C(Cn1nc(C(F)F)cc1C(F)F)N1CCC(c2nc(C3=NOC(c4cc(F)ccc4OS(=O)(=O)C4CC4)C3)cs2)CC1 (stereo not shown) [Example I-84] | 90 | 100 |  |  |  | 
CC(=NO)c1cccc(C2CC(c3csc(C4CCN(C(=O)Cn5nc(C(F)(F)F)cc5C)CC4)n3)=NO2)c1 (stereo not shown) [Example I-7] | 100 | 100 |  |  |  | 
CON=Cc1cccc(F)c1C1CC(c2csc(C3CCN(C(=O)Cn4nc(C(F)(F)F)cc4C)CC3)n2)=NO1 (stereo not shown) [Example I-118] | 95 | 100 |  |  |  | 
C=CC(=O)Oc1ccccc1C1CC(c2csc(C3CCN(C(=O)Cn4nc(C(F)F)cc4C(F)F)CC3)n2)=NO1 (stereo not shown) [Example I-116] | 98 | 100 |  |  |  | 
O=C(Oc1ccccc1C1CC(c2csc(C3CCN(C(=O)Cn4nc(C(F)F)cc4C(F)F)CC3)n2)=NO1)c1cccc(F)c1 (stereo not shown) [Example I-129] | 98 | 98 |  |  |  | 
Cc1cc(C(F)(F)F)nn1CC(=O)N1CCC(c2nc(C3=NOC(c4c(Cl)cccc4OCC#N)C3)cs2)CC1 (stereo not shown) [Example I-78] | 80 | 97 |  |  |  | 
CS(=O)(=O)Oc1ccccc1C1CC(c2csc(C3CCN(C(=O)Cn4nc(C(F)F)cc4C(F)F)CC3)n2)=NO1 (stereo not shown) [Example I-124] | 100 | 100 | 100 |  |  | 
CON=Cc1cccc(C2CC(c3csc(C4CCN(C(=O)Nc5cc(Cl)ccc5C)CC4)n3)=NO2)c1 (mixture of isomers) [Example I-19] | 100 | 100 |  |  |  | 
O=C(Cn1nc(C(F)F)cc1C(F)F)N1CCC(c2nc(C3=NOC(c4ccccc4C=NO)C3)cs2)CC1 (mixture of isomers) [Example I-35] | 95 | 100 |  |  |  | 
O=CNc1ccccc1C1CC(c2csc(C3CCN(C(=O)Cc4cc(C(F)F)ccc4C(F)F)CC3)n2)=NO1 (stereo not shown) [Example I-123] | 100 | 73 |  |  |  | 
Cc1ccc(C)c(NC(=O)N2CCC(c3nc(C4=NOC(c5ccccc5OS(C)(=O)=O)C4)cs3)CC2)c1 (stereo not shown) [Example I-74] | 100 | 100 |  |  |  | 
C#CCN(C=O)c1ccccc1C1CC(c2csc(C3CCN(C(=O)Cn4nc(C(F)F)cc4C(F)F)CC3)n2)=NO1 (stereo not shown) [Example I-117] | 79 | 96 |  |  |  | 
CON=C(C)c1cccc(C2CC(c3csc(C4CCN(C(=O)Cn5nc(C(F)(F)F)cc5C)CC4)n3)=NO2)c1 (stereo not shown) [Example I-3] | 100 | 97 |  |  |  | 
Cc1cc(C(F)(F)F)nn1CC(=O)N1CCC(c2nc(C3=NOC(c4cccc(C=NO)c4)C3)cs2)CC1 (mixture of isomers) [Example I-10] | 100 | 92 |  |  |  | 
COC(=O)COc1ccc(C2CC(c3csc(C4CCN(C(=O)Cn5nc(C(F)F)cc5C(F)F)CC4)n3)=NO2)cc1 (stereo not shown) [Example I-128] | 90 | 93 |  |  |  | 
